Laboratory results as given in ChEMBL document CHEMBL1146042, “Identification of metabolites of the tryptase inhibitor CRA-9249: observation of a metabolite derived from an unexpected hydroxylation pathway” (Bioorg Med Chem Lett, 2006).

Experiments:
Tryptase = Tryptase (Homo sapiens, UniProt Q9BZJ3+Q15661+Q9NRR2); assay: Inhibition of mast cell tryptase; assay type: protein assay
[1] = Stability in dog liver microsome after 3 hrs; assay type: ADME, Canis lupus familiaris; settings: liver microsomes, read-out: Stability
[2] = Stability in rat liver microsome after 3 hrs; assay type: ADME; settings: liver microsomes, read-out: Stability
Macaca fascicularis = species on record: Macaca fascicularis; assay: Stability in cynomolgus monkey liver microsome after 3 hrs; settings: liver microsomes
[3] = Stability in human liver microsome after 3 hrs; assay type: ADME; settings: liver microsomes, read-out: Stability
[4] = Stability in mouse liver microsome after 3 hrs; assay type: ADME; settings: liver microsomes, read-out: Stability

SMILES	Ki (Tryptase) [nM]	other results
Cn1c(C(F)(F)c2nc3c(F)cc(F)cc3[nH]2)nc2ccc(C(=O)NC(O)COc3ccc(F)cc3)cc21 (stereo unspecified)	24	–
Cn1c(C(F)(F)c2nc3c(F)cc(F)cc3[nH]2)nc2ccc(C(=O)NCCOc3ccc(F)cc3)cc21	300	remaining at 3 h [1]: < 10%; remaining at 3 h [2]: 56%; remaining at 3 h (Macaca fascicularis): < 10%; remaining at 3 h [3]: < 10%; remaining at 3 h [4]: < 10%
Cn1c(C(F)(F)c2nc3c(F)c(O)c(F)cc3[nH]2)nc2ccc(C(=O)NCCOc3ccc(F)cc3)cc21	1400	–
Cn1c(C(F)(F)c2nc3c(F)cc(F)cc3[nH]2)nc2ccc(C(N)=O)cc21	2700	–
Cn1c(C(F)(F)c2nc3c(F)cc(F)cc3[nH]2)nc2ccc(C(=O)NCCO)cc21	7000	–
Cn1c(C(F)(F)c2nc3c(F)cc(F)c(O)c3[nH]2)nc2ccc(C(=O)NCCOc3ccc(F)cc3)cc21	34	–
